CC(CCC(=O)O)(c1ccc(O)cc1)c1ccc(O)cc1
Details	solubility (mole fraction)
in acetone, 288.15 K	0.125
in acetone, 291.15 K	0.127
in acetone, 294.15 K	0.13
in acetone, 297.15 K	0.134
in acetone, 300.15 K	0.137
in acetone, 303.15 K	0.14
in acetone, 306.15 K	0.143
in acetone, 309.15 K	0.146
in acetone, 312.15 K	0.15
in acetone, 315.15 K	0.153
in acetone, 318.15 K	0.157
in acetonitrile, 288.15 K	0.00804
in acetonitrile, 291.15 K	0.00871
in acetonitrile, 294.15 K	0.00973
in acetonitrile, 297.15 K	0.0106
in acetonitrile, 300.15 K	0.0116
in acetonitrile, 303.15 K	0.013
in acetonitrile, 306.15 K	0.0144
in acetonitrile, 309.15 K	0.0162
in acetonitrile, 312.15 K	0.0181
in acetonitrile, 315.15 K	0.0208
in acetonitrile, 318.15 K	0.0238
in ethanol, 288.15 K	0.0989
in ethanol, 291.15 K	0.103
in ethanol, 294.15 K	0.107
in ethanol, 297.15 K	0.11
in ethanol, 300.15 K	0.114
in ethanol, 303.15 K	0.118
in ethanol, 306.15 K	0.123
in ethanol, 309.15 K	0.129
in ethanol, 312.15 K	0.136
in ethanol, 315.15 K	0.142
in ethanol, 318.15 K	0.148
in ethyl acetate, 288.15 K	0.0498
in ethyl acetate, 291.15 K	0.0509
in ethyl acetate, 294.15 K	0.052
in ethyl acetate, 297.15 K	0.0533
in ethyl acetate, 300.15 K	0.0553
in ethyl acetate, 303.15 K	0.0576
in ethyl acetate, 306.15 K	0.0604
in ethyl acetate, 309.15 K	0.0637
in ethyl acetate, 312.15 K	0.0667
in ethyl acetate, 315.15 K	0.0696
in ethyl acetate, 318.15 K	0.0727
in ethyl formate, 288.15 K	0.0113
in ethyl formate, 291.15 K	0.0116
in ethyl formate, 294.15 K	0.012
in ethyl formate, 297.15 K	0.0127
in ethyl formate, 300.15 K	0.0136
in ethyl formate, 303.15 K	0.0146
in ethyl formate, 306.15 K	0.0155
in ethyl formate, 309.15 K	0.0166
in ethyl formate, 312.15 K	0.0183
in ethyl formate, 315.15 K	0.0202
in ethyl formate, 318.15 K	0.0221
in isopropanol, 288.15 K	0.063
in isopropanol, 291.15 K	0.0631
in isopropanol, 294.15 K	0.0634
in isopropanol, 297.15 K	0.0637
in isopropanol, 300.15 K	0.0651
in isopropanol, 303.15 K	0.0665
in isopropanol, 306.15 K	0.0687
in isopropanol, 309.15 K	0.0718
in isopropanol, 312.15 K	0.077
in isopropanol, 315.15 K	0.0829
in isopropanol, 318.15 K	0.0914
in methanol, 288.15 K	0.096
in methanol, 291.15 K	0.0983
in methanol, 294.15 K	0.101
in methanol, 297.15 K	0.104
in methanol, 300.15 K	0.106
in methanol, 303.15 K	0.11
in methanol, 306.15 K	0.114
in methanol, 309.15 K	0.119
in methanol, 312.15 K	0.123
in methanol, 315.15 K	0.127
in methanol, 318.15 K	0.131
in methyl acetate, 288.15 K	0.0453
in methyl acetate, 291.15 K	0.0477
in methyl acetate, 294.15 K	0.0497
in methyl acetate, 297.15 K	0.0526
in methyl acetate, 300.15 K	0.0559
in methyl acetate, 303.15 K	0.0594
in methyl acetate, 306.15 K	0.063
in methyl acetate, 309.15 K	0.0668
in methyl acetate, 312.15 K	0.0713
in methyl acetate, 315.15 K	0.0775
in methyl acetate, 318.15 K	0.085
in n-butanol, 288.15 K	0.0712
in n-butanol, 291.15 K	0.0763
in n-butanol, 294.15 K	0.0814
in n-butanol, 297.15 K	0.0867
in n-butanol, 300.15 K	0.0919
in n-butanol, 303.15 K	0.0971
in n-butanol, 306.15 K	0.102
in n-butanol, 309.15 K	0.107
in n-butanol, 312.15 K	0.112
in n-butanol, 315.15 K	0.116
in n-butanol, 318.15 K	0.12
in n-butyl acetate, 288.15 K	0.0117
in n-butyl acetate, 291.15 K	0.0143
in n-butyl acetate, 294.15 K	0.0169
in n-butyl acetate, 297.15 K	0.0199
in n-butyl acetate, 300.15 K	0.0227
in n-butyl acetate, 303.15 K	0.0258
in n-butyl acetate, 306.15 K	0.029
in n-butyl acetate, 309.15 K	0.0325
in n-butyl acetate, 312.15 K	0.0356
in n-butyl acetate, 315.15 K	0.039
in n-butyl acetate, 318.15 K	0.0428
in n-propanol, 288.15 K	0.0352
in n-propanol, 291.15 K	0.0384
in n-propanol, 294.15 K	0.0416
in n-propanol, 297.15 K	0.046
in n-propanol, 300.15 K	0.0502
in n-propanol, 303.15 K	0.0541
in n-propanol, 306.15 K	0.0588
in n-propanol, 309.15 K	0.0631
in n-propanol, 312.15 K	0.0671
in n-propanol, 315.15 K	0.0732
in n-propanol, 318.15 K	0.0803
in n-propyl acetate, 288.15 K	0.0291
in n-propyl acetate, 291.15 K	0.0298
in n-propyl acetate, 294.15 K	0.0309
in n-propyl acetate, 297.15 K	0.032
in n-propyl acetate, 300.15 K	0.0336
in n-propyl acetate, 303.15 K	0.0358
in n-propyl acetate, 306.15 K	0.0379
in n-propyl acetate, 309.15 K	0.0403
in n-propyl acetate, 312.15 K	0.0433
in n-propyl acetate, 315.15 K	0.0472
in n-propyl acetate, 318.15 K	0.0507
in sec-butanol, 288.15 K	0.0823
in sec-butanol, 291.15 K	0.0876
in sec-butanol, 294.15 K	0.0926
in sec-butanol, 297.15 K	0.0978
in sec-butanol, 300.15 K	0.103
in sec-butanol, 303.15 K	0.11
in sec-butanol, 306.15 K	0.117
in sec-butanol, 309.15 K	0.124
in sec-butanol, 312.15 K	0.129
in sec-butanol, 315.15 K	0.135
in sec-butanol, 318.15 K	0.14
